Measured values as given in patent publication US4719046A, “Crysene derivatives” (Burroughs Wellcome Co., priority 1984, dated 1988).
Structures can show the parent of a compound that is named as a salt.

Assays:
[1] = system: CD2-F1 mice; test: LD20 in the P388/0 test mice; format: in vivo, mouse (CD2-F1); conditions: IP days 1, 5, 9, doses on a mg/kg basis
Method: (§1) CD2-F1 mice, of the same sex, weighing 20±3 g, are used for this test. Control and test animals are injected intraperitoneally with a suspension of ~10^6 viable P388/0 tumor cells on day 0. In each test, several dose levels which bracket the LD20 of the compound are evaluated; each dose level group contains six animals. The test compounds are prepared either in physiologic saline containing 0.05% Tween 80 or distilled water containing 5% dextrose and are administered intraperitoneally on days 1, 5, and 9 relative to tumor implant. Doses are on a mg/kg basis according to individual animals' body weights. The day of death for each animal is recorded, the median identified for each group and the ratios of median survival time for treated (T)/control (C) groups are calculated. The criterion for activity is T/C×100≥120%.
^A Values in parentheses are the highest nontoxic dose where the
LD20 was not determined.

[2] = system: Candida albicans (CN 1863); test: Candida albicans antifungal test; format: cell-based; conditions: Wellcotest sensitivity test agar plus 7% lysed horse blood, CN1863
From the text: Antifungal testing against Candida albicans (CN 1863) was done with slight modifications using a combination of broth and agar dilution assays as outlined in Laboratory Handbook of Medical Mycology, Chapter 6, pages 441-446, M. R. McGinnis, Academic Press, New York, NY, 1980
Medium: Wellcotest ® sensitivity test agar plus 7% lysed horse blood.

[3] = system: Mycoplasma smegmatis; test: Antibacterial test, Mycoplasma smegmatis (agar dilution); format: cell-based
From the text: (§2) Anitbacterial testing against […] (S3264) and Streptococcus pyogenes (CN10) was done with slight modifications using standard agar dilution assays as outlined in Manual of Clinical Microbiology Second Ed., E. H. Lennette. E. H. Spaulding and J. P. Traunt Eds., American Society for Microbiology, Washington, DC, 1974

[4] = system: melanotic melanoma B16; test: Melanotic Melanoma B16 test; format: in vivo, mouse (B6C3-F1); conditions: median survival T/C; IP days 1, 5, 9; active if >125%; dose mg/kg: 1C 100, 6G 50, 3 70, 2 75, 18B 70
From the text: Methods for evaluating the antitumor activity of these compounds are essentially those used in the Tumor Panel by the Developmental Therapeutics Program, Division of Cancer Treatment, National Cancer Institute, A. Goldin, et al., Methods in Cancer Research, Vol. XVI, p. 165, Academic Press (1979). Some modifications, in dose level and schedule have been made to increase the testing efficiency.
as §1
B6C3-F1 mice of the same sex, weighing 20±3 g, are used for this test. A suspension of B16 cells is prepared from a non-necrotic portion of solid tumor tissue obtained from a passage mouse. One gram of tumor is homogenized in 9 mL ice-cold Earle's salts solution and filtered through 1000 mesh screen to remove debris. 0.5 mL of the resulting brei is injected intraperitoneally into each animal. Dosing is carried out as in the P388/0 and L1210 tests. Days of death are recorded for a 60 day period and T/C ratio calculated as in the P388/0 and L1210 tests. The criterion for activity is T/C×100>125%.

[5] = system: Streptococcus pyogenes (CN10); test: Antibacterial test, Streptococcus pyogenes (agar dilution); format: cell-based; conditions: agar dilution, CN10, read-out: MIC
From the text: as §2

## C[C@H](O)[C@@](C)(CO)NCc1cc2c3ccccc3ccc2c2ccccc12 (relative stereo) [Example 6G, (+-)(2R*,3S*)-2-(6-Chrysenylmethylamino)-2-methyl-1,3-butanediol hydrochloride.1/3H2 O]
[1]
  LD20: 53 mg/kg
[2]
  MIC: 100 µg/mL
[3]
  MIC: ≤ 3 µg/mL
[4]
  T/C × 100% Excluding 60 day Survivors: +160%
[5]
  MIC: 10 µg/mL
